Measurements published in ChEMBL document CHEMBL1201862, “PubChem BioAssay data set” (2004).
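Tested at 5 concentrations; 48 h exposure; 96-well plates; endpoints linearly interpolated, else capped at highest concentration. Abbreviation: GI50, concentration required for 50% inhibition of growth.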 Active and inactive are the calls of the source. No stated cut-off is given here; in the data, active = GI50 up to about 1.1 µM and inactive = higher.

Key:
Experiment in all cases: NCI tumour cell line growth inhibition, 48 h
SK-MEL-2 = system: SK-MEL-2
SK-OV-3 = system: SK-OV-3
MOLT-4 = system: MOLT-4
K562 = system: K562
TK-10 = system: TK-10
CAKI-1 = system: CAKI-1
RXF 393 = system: RXF 393
EKVX = system: EKVX
RPMI-8226 = system: RPMI-8226
SR = system: SR
SNB-19 = system: SNB-19
NCI/ADR-RES = system: NCI/ADR-RES
HOP-92 = system: HOP-92
A549 = system: A549
OVCAR-4 = system: OVCAR-4
HCT-116 = system: HCT-116
Hs-578T = system: Hs-578T
MDA-MB-435 = system: MDA-MB-435
UACC-62 = system: UACC-62
SF-539 = system: SF-539

Measured: GI50

CC1=NN(c2ccccc2)C(=O)C1/N=N/c1ccc(S(N)(=O)=O)cc1 (stereo not given)
inactive: SK-MEL-2 > 100 µM | SK-OV-3 > 100 µM | MOLT-4 > 100 µM | K562 > 100 µM | TK-10 > 100 µM | CAKI-1 > 100 µM | RXF 393 > 100 µM | EKVX > 100 µM | RPMI-8226 > 100 µM | SR > 100 µM | SNB-19 > 100 µM | NCI/ADR-RES > 100 µM | HOP-92 > 100 µM | A549 > 100 µM | OVCAR-4 > 100 µM | HCT-116 > 100 µM | Hs-578T > 100 µM | MDA-MB-435 > 100 µM | UACC-62 > 100 µM | SF-539 > 100 µM

Cc1cccc2c(=O)c3c(O)cc4c(c3n(C)c12)C=CC(C)(C)O4
inactive: SK-MEL-2 > 100 µM | SK-OV-3 > 100 µM | MOLT-4 29.1 µM | K562 11.2 µM | TK-10 > 100 µM | CAKI-1 > 100 µM | RXF 393 5.93 µM | EKVX 25.6 µM | RPMI-8226 9.02 µM | SR 10.4 µM | SNB-19 > 100 µM | NCI/ADR-RES 31.8 µM | HOP-92 21.6 µM | A549 77.6 µM | OVCAR-4 43.9 µM | HCT-116 58.9 µM | Hs-578T 39.4 µM | MDA-MB-435 70.5 µM | UACC-62 > 100 µM | SF-539 87.5 µM

S=C(Nc1ccccc1)N(Cc1ccccc1)c1ccccc1
inactive: SK-MEL-2 17.3 µM | SK-OV-3 > 100 µM | MOLT-4 25.5 µM | K562 29.7 µM | TK-10 29.7 µM | CAKI-1 24.2 µM | RXF 393 22.6 µM | EKVX 17.5 µM | RPMI-8226 34.9 µM | SR 20.5 µM | SNB-19 80.2 µM | NCI/ADR-RES > 100 µM | HOP-92 29.9 µM | A549 29.8 µM | OVCAR-4 23.7 µM | HCT-116 40.1 µM | Hs-578T 20 µM | MDA-MB-435 20.3 µM | UACC-62 21.6 µM | SF-539 17.7 µM
